Data from patent publication US10618901B2 (GlaxoSmithKline Intellectual Property Development Limited, priority 2014, dated 2020).

Each compound was assayed against T1, LRRK2 Ser935 phosphorylation in SH-SY5Y cells over-expressing recombinant full length LRRK2 (Homo sapiens, UniProt Q5S007) (assay: Recombinant cellular LRRK2 AlphaScreen assay). Settings: LRRK2 Ser935 phosphorylation, 60 minutes, read-out: recombinant cellcular LRRK2 alphaScreen assay (pIC50) (converted).
T1 construct: A BacMam virus expressing full length recombinant LRRK2 was purchased from Invitrogen; host or cells: SH-SY5Y (BacMam transduction)
T1 sequence (Q5S007 whole entry): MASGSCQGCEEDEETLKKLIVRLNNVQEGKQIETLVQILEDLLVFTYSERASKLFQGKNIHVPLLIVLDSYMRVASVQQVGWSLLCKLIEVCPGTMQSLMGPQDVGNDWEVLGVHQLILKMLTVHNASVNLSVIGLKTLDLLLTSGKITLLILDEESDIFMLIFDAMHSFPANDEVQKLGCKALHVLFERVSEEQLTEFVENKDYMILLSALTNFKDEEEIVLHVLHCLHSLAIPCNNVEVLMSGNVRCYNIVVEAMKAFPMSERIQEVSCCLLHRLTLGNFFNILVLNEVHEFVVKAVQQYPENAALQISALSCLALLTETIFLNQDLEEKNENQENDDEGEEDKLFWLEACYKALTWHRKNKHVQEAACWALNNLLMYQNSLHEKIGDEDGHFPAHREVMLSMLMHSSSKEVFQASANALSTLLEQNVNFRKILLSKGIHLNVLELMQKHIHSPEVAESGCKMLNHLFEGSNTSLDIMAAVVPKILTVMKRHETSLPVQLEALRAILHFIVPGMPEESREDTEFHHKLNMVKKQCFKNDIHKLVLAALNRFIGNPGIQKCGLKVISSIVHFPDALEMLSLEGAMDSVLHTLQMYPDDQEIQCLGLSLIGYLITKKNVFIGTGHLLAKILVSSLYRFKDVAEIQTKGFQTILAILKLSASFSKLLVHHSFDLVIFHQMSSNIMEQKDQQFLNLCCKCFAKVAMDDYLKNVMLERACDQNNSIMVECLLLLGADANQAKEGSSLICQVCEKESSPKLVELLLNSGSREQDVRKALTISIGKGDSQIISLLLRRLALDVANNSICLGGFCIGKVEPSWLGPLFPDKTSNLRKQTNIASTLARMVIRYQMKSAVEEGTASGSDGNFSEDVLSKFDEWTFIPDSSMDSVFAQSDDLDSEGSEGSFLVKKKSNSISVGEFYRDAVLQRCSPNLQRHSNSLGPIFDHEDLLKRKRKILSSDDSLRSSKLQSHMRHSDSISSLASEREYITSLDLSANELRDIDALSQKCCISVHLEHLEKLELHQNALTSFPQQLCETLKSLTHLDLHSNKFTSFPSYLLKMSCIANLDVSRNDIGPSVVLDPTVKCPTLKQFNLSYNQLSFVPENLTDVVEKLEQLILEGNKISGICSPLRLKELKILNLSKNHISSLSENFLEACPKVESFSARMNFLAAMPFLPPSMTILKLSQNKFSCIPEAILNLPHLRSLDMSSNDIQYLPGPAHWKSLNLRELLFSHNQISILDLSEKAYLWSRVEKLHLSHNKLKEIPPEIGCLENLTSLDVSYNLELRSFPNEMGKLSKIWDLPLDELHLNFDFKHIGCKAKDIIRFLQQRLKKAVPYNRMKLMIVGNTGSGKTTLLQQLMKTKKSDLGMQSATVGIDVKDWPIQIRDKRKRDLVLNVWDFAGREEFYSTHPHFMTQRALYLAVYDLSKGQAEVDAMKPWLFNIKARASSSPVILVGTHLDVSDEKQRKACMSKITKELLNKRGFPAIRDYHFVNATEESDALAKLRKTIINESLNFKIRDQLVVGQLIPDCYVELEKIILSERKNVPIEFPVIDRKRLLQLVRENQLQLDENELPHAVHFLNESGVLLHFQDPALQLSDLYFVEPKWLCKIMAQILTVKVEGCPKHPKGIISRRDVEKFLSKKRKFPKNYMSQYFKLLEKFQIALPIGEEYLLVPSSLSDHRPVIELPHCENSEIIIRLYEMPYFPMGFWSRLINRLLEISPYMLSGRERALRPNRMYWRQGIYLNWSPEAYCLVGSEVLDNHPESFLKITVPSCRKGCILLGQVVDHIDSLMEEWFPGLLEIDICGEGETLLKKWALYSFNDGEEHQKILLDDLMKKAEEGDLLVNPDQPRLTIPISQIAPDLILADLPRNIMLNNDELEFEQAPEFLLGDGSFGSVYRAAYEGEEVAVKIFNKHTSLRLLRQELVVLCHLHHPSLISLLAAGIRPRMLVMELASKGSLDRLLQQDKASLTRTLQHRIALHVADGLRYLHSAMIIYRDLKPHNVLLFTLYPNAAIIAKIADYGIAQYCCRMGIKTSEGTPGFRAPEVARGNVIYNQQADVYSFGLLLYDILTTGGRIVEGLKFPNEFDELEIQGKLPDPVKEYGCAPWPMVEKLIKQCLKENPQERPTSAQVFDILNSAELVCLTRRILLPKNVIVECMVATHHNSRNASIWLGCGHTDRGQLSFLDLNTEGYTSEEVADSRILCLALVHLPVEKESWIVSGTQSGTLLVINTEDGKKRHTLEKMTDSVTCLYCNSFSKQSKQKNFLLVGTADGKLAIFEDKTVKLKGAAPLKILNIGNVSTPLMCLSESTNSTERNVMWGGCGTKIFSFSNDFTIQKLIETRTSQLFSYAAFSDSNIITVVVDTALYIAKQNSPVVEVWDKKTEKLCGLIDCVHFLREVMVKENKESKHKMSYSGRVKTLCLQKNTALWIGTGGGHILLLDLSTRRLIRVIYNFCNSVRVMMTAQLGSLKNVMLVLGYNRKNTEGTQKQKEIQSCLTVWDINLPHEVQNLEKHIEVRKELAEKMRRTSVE
Type: cell-based
Text: Recombinant Cellular LRRK2 AlphaScreen Assay
To determine the activity of compounds against LRRK2 kinase activity in cells, the observed LRRK2 kinase-dependent modulation of LRRK2 Ser 935 phosphorylation (Dzamko et al., 2010, Biochem. J. 430: 405-413) was utilized to develop a quantitative 384 well plate-based immunoassay of LRRK2 Ser935 phosphorylation in the human neuroblastoma cell line SH-SY5Y, engineered to over-express recombinant full length LRRK2 protein.
A BacMam virus expressing full length recombinant LRRK2 was purchased from Invitrogen and amplified by inoculation of SF-9 cells at MOI 0.3 for 4-5 days in Sf-900 III SFM medium supplemented with 3% fetal bovine serum. Infected cell cultures were then centrifuged at 2000 g for 20 minutes, viral supernatant titer determined by anti-gp64 plaque assay and stored at 4° C.
Affinity-purified anti-phospho LRRK2 Ser935 sheep polyclonal antibody (Dzamko et al., 2010, Biochem. J. 430: 405-413) was biotinylated by standard methods (PerkinElmer). Anti-LRRK2 rabbit polyclonal antibody was purchased from Novus Biologicals. AlphaScreen Protein A IgG Kit (including acceptor and donor beads) was purchased from Perkin Elmer.
SH-SY5Y cells were grown in DMEM/F12 medium with 10% dialysed fetal bovine serum and harvested by treatment with 0.5% trypsin-EDTA for 5 minutes at 37° C. followed by centrifugation at 1000 rpm for 4 minutes. The cell pellet was resuspended in Opti-MEM reduced serum media (Invitrogen) at 200,000 cells/ml and mixed with the BacMam LRRK2 virus at M01=50. 50 μl cell solutions were then dispensed to each well of a 384-well plate and incubated at 37° C., 5% CO2 for 24 hours.
Serial dilutions of test compounds were prepared in Opti-MEM reduced serum media (Invitrogen) and 5.6 ul transferred from compound plate to cell assay plate to achieve a top final assay concentration of 10 uM. DMSO was used in certain wells as controls. Cells were incubated at 37° C., 5% CO2 for 60 minutes. The medium was then removed and cells lysed by addition of 20 ul cell lysis buffer (Cell Signaling Technology) and incubation at 4° C. for 20 minutes. 10 ul of antibody/acceptor bead mix [(1/1000 biotinylated-pS935 LRRK2 antibody, 1/1000 total-LRRK2 antibody, 1/100 Acceptor beads in AlphaScreen detection buffer (25 mM Hepes (pH 7.4), 0.5% Triton X-100, 1 mg/ml Dextran 500 and 0.1% BSA)] was then added to each well and plates incubated for 2 hours at ambient temperature in the dark. 10 μl of donor beads solution (1/33.3 donor beads in AlphaScreen detection buffer) was then added to each well. Following incubation for a further 2 hours at ambient temperature in the dark, plates were read on an EnVision™ plate reader at emission 520-620 nm with excitation 680 nm. Dose response curve data was based on sigmoidal dose-response model.
For `CCOc1nc(Nc2cnn(C3CNCCC3(F)F)c2C)nc2[nH]ccc12` (single isomer, unassigned) [Example E117, N-(1-(4,4-difluoropiperidin-3-yl)-5-methyl-1H-pyrazol-4-yl)-4-ethoxy-7H-pyrrolo[2,3-d]pyrimidin-2-amine], the IC50 was 2.51 nM. `CCOc1nc(Nc2cnn([C@H]3C[C@H](F)CN(C4COC4)C3)c2Cl)nc2[nH]ccc12` [Example E150, N-(5-chloro-1-((3S,5S)-5-fluoro-1-(oxetan-3-yl)piperidin-3-yl)-1H-pyrazol-4-yl)-4-ethoxy-7H-pyrrolo[2,3-d]pyrimidin-2-amine] gave an IC50 of 31.6 nM.

Same assay, conditions: read-out: pIC50 in the recombinant cellular LRRK2 alphaScreen assay (converted)
In the case of `CCOc1nc(Nc2cn(CCOC)nc2C)nc2[nH]ccc12` [Example E8, 4-ethoxy-N-(1-(2-methoxyethyl)-3-methyl-1H-pyrazol-4-yl)-7H-pyrrolo-[2,3-d]-pyrimidin-2-amine], the IC50 is reported as ≤ 100 nM. With `CCOc1nc(Nc2cnn(C3CNCCC3(F)F)c2Cl)nc2[nH]ccc12` (single isomer, unassigned) [Example E125, N-(5-chloro-1-(4,4-difluoropiperidin-3-yl)-1H-pyrazol-4-yl)-4-ethoxy-7H-pyrrolo [2,3-d] pyrimidin-2-amine] the IC50 was ≤ 100 nM. `CCOc1nc(Nc2cnn(CCOC)c2C)nc2[nH]ccc12` [Example E9, 4-ethoxy-N-(1-(2-methoxyethyl)-5-methyl-1H-pyrazol-4-yl)-7H-pyrrolo-[2,3-d]pyrimidin-2-amine] was tested, and the IC50 was ≤ 100 nM. `CCOc1nc(Nc2cnn(CCN3CCO[C@H](C)C3)c2C)nc2[nH]ccc12` [Example E83, (R)-4-ethoxy-N-(5-methyl-1-(2-(2-methylmorpholino)ethyl)-1H-pyrazol-4-yl)-7H-pyrrolo [2,3-d]pyrimidin-2-amine] was tested, and the IC50 was ≤ 100 nM. `CCOc1nc(Nc2cnn([C@@H]3C[C@H](F)CN(C4COC4)C3)c2Cl)nc2[nH]ccc12` [Example E151, N-(5-chloro-1-((3R,5S)-5-fluoro-1-(oxetan-3-yl)piperidin-3-yl)-1H-pyrazol-4-yl)-4-ethoxy-7H-pyrrolo[2,3-d]pyrimidin-2-amine] was tested, and the IC50 was ≤ 100 nM. For `CCOc1nc(Nc2cnn([C@@H]3CCN(CC(F)F)C3)c2C)nc2[nH]ccc12` [Example E85, (R)—N-(1-(1-(2,2-difluoroethyl)pyrrolidin-3-yl)-5-methyl-1H-pyrazol-4-yl)-4-ethoxy-7H-pyrrolo[2,3-d]pyrimidin-2-amine], the IC50 was ≤ 100 nM. With `CCOc1nc(Nc2cnn(CCN3CCOC[C@H]3C)c2C)nc2[nH]ccc12` [Example E81, (R)-4-ethoxy-N-(5-methyl-1-(2-(3-methylmorpholino)ethyl)-1H-pyrazol-4-yl)-7H-pyrrolo [2,3-d]pyrimidin-2-amine] the IC50 was ≤ 100 nM. `CCOc1nc(Nc2cnn([C@H]3CC[C@@H](O)CC3)c2C)nc2[nH]ccc12` [Example E54, cis-4-(4-((4-ethoxy-7H-pyrrolo[2,3-d]pyrimidin-2-yl)amino)-5-methyl-1H-pyrazol-1-yl)-cyclohexanol] was tested, and the IC50 was ≤ 100 nM. In the case of `CCOc1nc(Nc2cnn(CCN3CCO[C@@H](C)C3)c2C)nc2[nH]ccc12` [Example E84, (S)-4-ethoxy-N-(5-methyl-1-(2-(2-methylmorpholino)ethyl)-1H-pyrazol-4-yl)-7H-pyrrolo [2,3-d]pyrimidin-2-amine], the IC50 is reported as ≤ 100 nM. `CCOc1nc(Nc2cnn(C3CN(C)CC3F)c2C)nc2[nH]ccc12` (single isomer, unassigned) [Example E59, 4-ethoxy-N-(1-(4-fluoro-1-methylpyrrolidin-3-yl)-5-methyl-1H-pyrazol-4-yl)-7H-pyrrolo-[2,3-d]pyrimidin-2-amine] was tested, and the IC50 was ≤ 100 nM. With `CCOc1nc(Nc2cnn(C3CNCCC3(F)F)c2C)nc2[nH]ccc12` (single isomer, unassigned) [Example E117, N-(1-(4,4-difluoropiperidin-3-yl)-5-methyl-1H-pyrazol-4-yl)-4-ethoxy-7H-pyrrolo[2,3-d]pyrimidin-2-amine] the IC50 was ≤ 100 nM. With `CCOc1nc(Nc2cn(CCOC)nc2C)nc2[nH]cc(C#N)c12` [Example E48, 4-ethoxy-2-((1-(2-methoxyethyl)-3-methyl-1H-pyrazol-4-yl)-amino)-7H-pyrrolo-[2,3-d]-pyrimidine-5-carbonitrile] the IC50 was ≤ 100 nM. With `CCOc1nc(Nc2cnn(C3CCCOC3)c2C)nc2[nH]ccc12` (single isomer, unassigned) [Example E30, 4-ethoxy-N-(5-methyl-1-(tetrahydro-2H-pyran-3-yl)-1H-pyrazol-4-yl)-7H-pyrrolo-[2,3-d]pyrimidin-2-amine] the IC50 was ≤ 100 nM. In the case of `CCOc1nc(Nc2cnn(C3CCN(C4COC4)CC3(F)F)c2Cl)nc2[nH]ccc12` (single isomer, unassigned) [Example E133, N-(5-chloro-1-(3,3-difluoro-1-(oxetan-3-yl)piperidin-4-yl)-1H-pyrazol-4-yl)-4-ethoxy-7H-pyrrolo[2,3-d]pyrimidin-2-amine], the IC50 is reported as ≤ 100 nM. With `CCOc1nc(Nc2cnn(C3CN(C4COC4)CCC3(F)F)c2C)nc2[nH]ccc12` (single isomer, unassigned) [Example E119, N-(1-(4,4-difluoro-1-(oxetan-3-yl)piperidin-3-yl)-5-methyl-1H-pyrazol-4-yl)-4-ethoxy-7H-pyrrolo[2,3-d]pyrimidin-2-amine] the IC50 was ≤ 100 nM. With `CCOc1nc(Nc2cnn([C@@H]3CCO[C@H](C)C3)c2C)nc2[nH]ccc12` (single isomer, unassigned) [Example E42] the IC50 was ≤ 100 nM. For `CCOc1nc(Nc2cnn([C@H]3CCN(C)C3)c2C)nc2[nH]cc(C#N)c12` [Example E49, (S)-4-ethoxy-2-((5-methyl-1-(1-methyl-pyrrolidin-3-yl)-1H-pyrazol-4-yl)-amino)-7H-pyrrolo-[2,3-d]pyrimidine-5-carbonitrile], the IC50 was ≤ 100 nM. In the case of `CCOc1nc(Nc2cnn([C@H]3CCCN(C4COC4)C3)c2C)nc2[nH]ccc12` [Example E136, (S)-4-ethoxy-N-(5-methyl-1-(1-(oxetan-3-yl)piperidin-3-yl)-1H-pyrazol-4-yl)-7H-pyrrolo[2,3-d]pyrimidin-2-amine], the IC50 is reported as ≤ 100 nM. `CCOc1nc(Nc2cnn(C3CCN(C4COC4)CC3F)c2CC)nc2[nH]ccc12` (single isomer, unassigned) [Example E130, (trans)-4-ethoxy-N-(5-ethyl-1-(3-fluoro-1-(oxetan-3-yl)piperidin-4-yl)-1H-pyrazol-4-yl)-7H-pyrrolo[2,3-d]pyrimidin-2-amine] was tested, and the IC50 was ≤ 100 nM. With `CCOc1nc(Nc2cnn(CC(C)N3CCOCC3)c2C)nc2[nH]ccc12` (single isomer, unassigned) [Example E92] the IC50 was ≤ 100 nM. With `CCOc1nc(Nc2cnn(C3CNCCO3)c2Cl)nc2[nH]ccc12` (single isomer, unassigned) [Example E143, N-(5-chloro-1-(morpholin-2-yl)-1H-pyrazol-4-yl)-4-ethoxy-7H-pyrrolo[2,3-d]pyrimidin-2-amine] the IC50 was ≤ 100 nM. `CCOc1nc(Nc2cnn(CCN3CCOC[C@@H]3C)c2C)nc2[nH]ccc12` [Example E82, (S)-4-ethoxy-N-(5-methyl-1-(2-(3-methylmorpholino)ethyl)-1H-pyrazol-4-yl)-7H-pyrrolo [2,3-d]pyrimidin-2-amine] was tested, and the IC50 was ≤ 100 nM. For `CCOc1nc(Nc2cnn(C3CCN(C4COC4)CC3(F)F)c2C)nc2[nH]ccc12` (single isomer, unassigned) [Example E131, N-(1-(3,3-difluoro-1-(oxetan-3-yl)piperidin-4-yl)-5-methyl-1H-pyrazol-4-yl)-4-ethoxy-7H-pyrrolo[2,3-d]pyrimidin-2-amine], the IC50 was ≤ 100 nM. `CCOc1nc(Nc2cnn(C3CN(C4COC4)CCO3)c2Cl)nc2[nH]ccc12` (racemic) [Example E140, (±)-N-(5-chloro-1-(4-(oxetan-3-yl)morpholin-2-yl)-1H-pyrazol-4-yl)-4-ethoxy-7H-pyrrolo [2,3-d]pyrimidin-2-amine] was tested, and the IC50 was ≤ 100 nM. `CCOc1nc(Nc2cnn([C@H]3C[C@H](F)CN(C4COC4)C3)c2Cl)nc2[nH]ccc12` [Example E150, N-(5-chloro-1-((3S,5S)-5-fluoro-1-(oxetan-3-yl)piperidin-3-yl)-1H-pyrazol-4-yl)-4-ethoxy-7H-pyrrolo[2,3-d]pyrimidin-2-amine] was tested, and the IC50 was ≤ 100 nM. For `CCOc1nc(Nc2cnn(CCN3CC4CC4C3)c2C)nc2[nH]ccc12` (centres unmarked) [Example E10, N-(1-(2-(3-aza-bicyclo-[3.1.0]hexan-3-yl)ethyl)-5-methyl-1H-pyrazol-4-yl)-4-ethoxy-7H-pyrrolo-[2,3-d]pyrimidin-2-amine], the IC50 was ≤ 100 nM. `CCOc1nc(Nc2cnn(C3COC3)c2Cl)nc2[nH]ccc12` [Example E35, N-(5-chloro-1-(oxetan-3-yl)-1H-pyrazol-4-yl)-4-ethoxy-7H-pyrrolo-[2,3-d]pyrimidin-2-amine] was tested, and the IC50 was ≤ 100 nM.
